Experimental data as given in patent US20210108199A1, “Treatment for aggressive cancers by targeting C9ORF72” (The Trustees of Columbia University in the City of New York, priority 2017, published 2021).

Experiments:
Assay type in all cases: cell-based
U87 cells [1] = test: Vacuole quantitation in phase contrast images after C9 KD; conditions: 3 days, vs siCtrl
Description: For siRNA knockdown experiments, siRNAs targeting C9 mRNA were designed with the Whitehead website (sirna.wi.mit.edu) and with RNAxs webserver (rna.tbi.univie.ac.at/cgi-bin/RNAxs). All siRNAs were obtained from GenePharma™. Lipofectamine RNAiMAX (Thermo Scientific™) was used as the transfection reagent for all siRNA experiments (according to the manufacturer's instructions). siRNA concentration was 40 nM per 60 mm plate. After 6 hours, media was changed and cells were treated again with siRNA after 48 hours. For RNA and protein analysis, cells were harvested after 48 hours following the second treatment. All KD experiments were performed in three biological replicates. The siRNA sequences were as follows: […] (SEQ ID NO:631; sense) and […] (SEQ ID NO:632; antisense); and GCACAUAUGGACUAUCAAUtt (SEQ ID NO:633; sense) and AUUGAUAGUCCAUAUGUGCtg (SEQ ID NO:634; antisense). The lower case letters in the sequence indicate location where optional modifications can be placed to enhance stability of the RNA.
The vacuoles were examined in order to reveal the mechanism by which C9 protein levels contribute to vacuole initiation. […] The number of vacuoles per cell were counted using imageJ™ from 3 biological replicates and a total of about 50 cells were quantitated, each dot representing a measurement of vacuoles per one cell FIG. 2A). […] Statistical significance was assessed by two tailed t-test. […]

cortical neurons = test: C9 knockdown in neurons and live imaging of mitochondria; conditions: rat-derived cortical neurons
Description: Cortices from E19 embryonic brains from pregnant Sprague-Dawley female rats were dissected in ice-cold HBSS (ThermoFisher™ Scientific #24020117), supplemented with 10 mM HEPES (pH 7.4), 10 mM MgCl2, 1% P/S and 0.5 mM L-glutamine. The hippocampal tissue was discarded and only the cortical tissue was trypsinized for 15 minutes at 37° C. in a water bath and resuspended in DMEM with 10% FBS and 1% P/S. The dissociated neurons were subjected to centrifugation to remove debris, counted and plated onto MatTek™ 35 mm or 50 mm glass bottom dishes pre-coated with Poly-L-Lysine (1 mg/mL) and Laminin, at a density of 100,000 for live imaging experiments. After about 12-15 hours, the medium was changed to Neurobasal medium supplemented with 0.5 mM L-Glutamine, B-27 serum free supplement (Gibco™) and 1% P/S. Media were changed every 2-3 days.
Day 7 cortical neurons were transfected with 80 nM C9orf72 siRNA and 40 ng CMV-GFP vector using a magnetofectamine kit (OZ Biosciences™ #MTX0750). […]

U87 cells [2] = test: FACS cell cycle analysis; conditions: day three
Description: U87 cells were treated with control and C9 siRNA for 3 days. On day 3, cells were fixed in 70% ethanol at −20° C., re-suspended in phosphate-citrate buffer (192 mM Na2HPO4, 4 mM citric acid), and incubated for 30 minutes in PBS containing 10 μg/mL propidium iodide (PI) and 10 μg/mL RNase A. Data were collected on a FACSCalibur™ flow cytometer (Becton Dickinson™). Data analysis was performed using FlowJo™.
To validate the cell viability assays, C9 was knocked down in U87 cells and the cells were analyzed by FACS. […] The bar plots represent the cell cycle measurement (subG1-purple, G2-green, S-red, G1-blue) of three independent biological replicates upon control (siCtrl) or C9 (siC9; SEQ ID NO:631) siRNA. Error bars represent S.E.M.

p53 null U87 cells = test: Western blot of PARP1, p-ERK, γ-H2AX in p53 null U87 cells
Description: For Western blot analysis, cells were lysed with lysis buffer (20 mM sodium phosphate (pH 7.0), 250 mM NaCl, 30 mM sodium pyrophosphate, 0.1% Nonidet™ P-40, 5 mM EDTA, 10 mM NaF, 0.1 mM Na3VO4, and 1 mM PMSF) supplemented with complete protease inhibitors (Roche™) and homogenized by passage through a 28 gauge needle. Protein concentration was measured with a Bio-Rad™ protein assay dye reagent and results were read using a spectrophotometer (BiophotometerPlus™ by Eppendorf™). Protein extracts were resolved by SDS PAGE on gradient (Thermo Fisher™) or 12% gels. Proteins were then electrotransferred at 350 mA for 80 minutes onto a PVDF membrane (Immobilon-P PVDF). Membranes were blocked with PBST with 5% milk and 1% BSA for 30 minutes. Quantitation of blots was performed Image Studio Lite software (LI-COR Biosciences™).
In addition, C9 was knocked down with two independent siRNAs in p53 null U87 cells to investigate the role of p53 in the viability of the cells.
See FIG. 37, a WB of p53 null U87 cells (KO #4) treated with control and C9 siRNA and showing levels of PARP1, p-ERK, γ-H2AX. Actin was used as a loading control.

## siC9: siRNA targeting C9 mRNA: UUAAUGAAACAAUAAUCACUC (SEQ ID NO:631; sense) and GUGAUUAUUGUUUCAUUAAUC (SEQ ID NO:632; antisense) (listed as RNA, chemistry not given here)
U87 cells [1]
  size of vacuoles: significant increase
  total vacuoles per cell: significant increase
Cortical neurons
  mitochondria motility: significantly reduced
Cortical neurons; dendrites
  mitochondria accumulation: induced mitochondria accumulation in the dendrites
U87 cells [2]
  decrease in G1: 4.7 fold
  increase in S phase: 3.3 fold
  increase in SubG1 phase: 3.1 fold
p53 null U87 cells; p53 KO U87 cells
  PARP1 protein: PARP downregulation occurred without the presence of p53
p53 null U87 cells; p53 null U87 cells (KO #4)
  ERK and γ-H2AX phosphorylation: increased ERK and γ-H2AX phosphorylation
